# Data: patent US8404619B2, “Particulate plant treatment composition” (Maruo Calcium Company Limited, priority 2005, dated 2013)
# Columns and labels:
# Format in all cases: in vivo
# [1] = system: mandarin orange tree (Satsuma mandarin); experiment: preventing peel puffing and improving fruit quality, leaf spray on mandarin orange tree; settings: for Fruit skin color: color chart 0 (poorly colored) to 12 (fully colored); for Degree of peel puffing: peel puffing index, 20 fruits, sprayed three times; for Phytotoxicity: scale of 1 to 5; for Sugar content: sugar refractometer; for Acidity: titratable citric acid content
# Method: (§1) The effects of a quality improver in preventing peel puffing and improving fruit quality were evaluated using a mandarin orange tree (Satsuma mandarin). That is, the quality improver of Example 1 was sprayed on the mandarin orange tree at the polyvalent metal concentrations shown in Table 2 over three times from early September (one-month interval). Each treatment was conducted on each branch by spraying with a backpack sprayer.
# The evaluation was carried out on 20 randomly selected fruits. The degree of peel puffing was evaluated by examining cross sections of the fruits based on a 4-point scale (none=0, mild=1, moderate=2, severe=3), and expressed by the following equation: peel puffing index={(1×the number of fruits with mild peel puffing)+(2×the number of fruits with moderate peel puffing)+(3×the number of fruits with severe peel puffing)}×100/(3×the number of fruits examined). The fruit skin color was determined using a color chart based on a scale of 0 (poorly colored) to 12 (fully colored). The sugar content was determined using a sugar refractometer. The acidity was expressed as titratable citric acid content. The dirt on a fruit surface was evaluated by a ratio of the surface area soiled whitish to the total surface area of the fruit on a scale of 1 to 5 (not soiled=1, slightly soiled=2, a little soiled=3, moderately soiled=4, much soiled=5). The phytotoxicity was evaluated on a scale of 1 to 5 (normal=1, slightly damaged=2, a little damaged=3, moderately damaged=4, much damaged=5).
# The examinations were carried out in the same manner as in Application Example 1 except that the quality improvers of Examples 2 to 21 and Comparative Examples 1 to 4 were used instead of the quality improver of Example 1.
# [2] = system: Welsh onion plant (Sakaiyakko); experiment: reducing leaf blight and improving quality, spray on Welsh onion plant; settings: for Leaf blight: leaf blight index, 50 plants, sprayed three times; for Phytotoxicity: scale of 1 to 5
# Method: The effects of a quality improver in reducing leaf blight and improving fruit quality were evaluated using a Welsh onion plant (Sakaiyakko).
# That is, the quality improver of Example 1 was sprayed on the Welsh onion at the polyvalent metal concentrations shown in Table 7 over three times from early June (one-week interval) using a backpack sprayer.
# The evaluation was carried out on 50 randomly selected plants. The leaf blight was determined by evaluating the degree of leaf blight based on a 4-point scale (none=0, mild=1, moderate=2, severe=3), and expressed by the following equation: leaf blight index={(1×the number of plants with mild leaf blight)+(2×the number of plants with moderate leaf blight)+(3×the number of plants with severe leaf blight)}×100/(3× the number of plants examined). In addition, plant length, plant weight, the number of leaves, and yield were evaluated. The dirt on a leaf surface was evaluated by a ratio of the surface area soiled whitish to the total surface area of the leaf on a scale of 1 to 5 (not soiled=1, slightly soiled=2, a little soiled=3, moderately soiled=4, much soiled=5). The phytotoxicity was evaluated on a scale of 1 to 5 (normal=1, slightly damaged=2, a little damaged=3, moderately damaged=4, much damaged=5).
# The examinations were carried out in the same manner as in Application Example 43 except that the quality improvers of Examples 2 to 21 and Comparative Examples 1 to 4 were used instead of the quality improver of Example 1.
# [3] = system: cherry fruit tree (Satonishiki); experiment: reducing fruit-cracking and improving fruit quality, spray on cherry fruit tree
# Method: as §1, with “reducing fruit-cracking” for “preventing peel puffing”, “cherry fruit” for “mandarin orange”, “(Satonishiki).” for “(Satsuma mandarin).”, “10” for “2”, “May (two-week” for “September (one-month”
# The evaluation was carried out on 50 randomly selected fruits. The incidence of fruit-cracking was expressed as a ratio of the number of fruits with cracking to the total number of fruits examined. The degree of fruit coloring was expressed as the colored area of a fruit. The sugar content was determined using a sugar refractometer. The acidity was expressed as titratable malic acid content. The dirt on a fruit surface was evaluated by a ratio of the surface area soiled whitish to the total surface area of the fruit on a scale of 1 to 5 (not soiled=1, slightly soiled=2, a little soiled=3, moderately soiled=4, much soiled=5). The phytotoxicity was evaluated on a scale of 1 to 5 (normal=1, slightly damaged=2, a little damaged=3, moderately damaged=4, much damaged=5).
# The examinations were carried out in the same manner as in Application Example 64 except that the quality improvers of Examples 2 to 4, 6 to 7, 12, 14, 17 to 18, and Comparative Examples 1 to 4 were used instead of the quality improver of Example 1.
# apple tree (Tsugaru) = experiment: preventing sunburn, spray on apple tree
# Method: The effects of a quality improver in preventing sunburn were evaluated using an apple tree (Tsugaru).
# That is, the quality improver of Example 1 was sprayed on the apple tree at the polyvalent metal concentrations shown in Table 12 over three times from early July (two-week interval). Each treatment was conducted on each branch by spraying with a backpack sprayer.
# The evaluation was carried out on 50 randomly selected fruits. The incidence of sunburn was expressed as a ratio of the number of fruits with sunburn to the total number of fruits examined. The level of sunburn was expressed on a 4-point scale (none=0, mild=1, moderate=2, severe=3) based on a ratio of the sunburn area to the total surface area of the fruit. The fruit with a sunburn level of 2 or 3 was considered as a seriously damaged fruit. The dirt on a fruit surface was evaluated by a ratio of the surface area soiled whitish to the total surface area of the fruit on a scale of 1 to 5 (not soiled=1, slightly soiled=2, a little soiled=3, moderately soiled=4, much soiled=5). The phytotoxicity was evaluated on a scale of 1 to 5 (normal=1, slightly damaged=2, a little damaged=3, moderately damaged=4, much damaged=5).
# The examinations were carried out in the same manner as in Application Example 84 except that the quality improvers of Examples 2 to 4, 6 to 7, 12, 14, 17 to 18, and Comparative Examples 1 to 4 were used instead of the quality improver of Example 1.
Compound,Fruit skin color ([1]; polyvalent metal 0.030 wt. %),Fruit skin color ([1]; polyvalent metal 0.075 wt. %),Degree of peel puffing ([1]; polyvalent metal 0.030 wt. %),Degree of peel puffing ([1]; polyvalent metal 0.075 wt. %),Phytotoxicity ([1]; polyvalent metal 0.030 wt. %),Phytotoxicity ([1]; polyvalent metal 0.075 wt. %),Sugar content ([1]; polyvalent metal 0.030 wt. %),Sugar content ([1]; polyvalent metal 0.075 wt. %),Acidity ([1]; polyvalent metal 0.030 wt. %),Acidity ([1]; polyvalent metal 0.075 wt. %),Leaf blight ([2]; polyvalent metal 0.030 wt. %),Leaf blight ([2]; polyvalent metal 0.075 wt. %),Number of leaves ([2]; polyvalent metal 0.030 wt. %),Plant length ([2]; polyvalent metal 0.030 wt. %),Plant weight ([2]; polyvalent metal 0.030 wt. %),Number of leaves ([2]; polyvalent metal 0.075 wt. %),Plant length ([2]; polyvalent metal 0.075 wt. %),Plant weight ([2]; polyvalent metal 0.075 wt. %),Phytotoxicity ([2]; polyvalent metal 0.030 wt. %),Phytotoxicity ([2]; polyvalent metal 0.075 wt. %),other results
[Ca+2].[Cl-].[Cl-] [calcium chloride],9.5,9.9,47.0,42.0,4,4,10.0,10.1,1.00,0.99,42.0,40.0,30.3,59.2,185,31.3,60.9,189,4,4,Acidity ([3]; polyvalent metal 0.030 wt. %): 0.64; Degree of fruit coloring ([3]; polyvalent metal 0.030 wt. %): 79.2; Incidence of fruit-cracking ([3]; polyvalent metal 0.030 wt. %): 18.2%; Phytotoxicity ([3]; polyvalent metal 0.030 wt. %): 4; Sugar content ([3]; polyvalent metal 0.030 wt. %): 19.4; Acidity ([3]; polyvalent metal 0.075 wt. %): 0.66; Degree of fruit coloring ([3]; polyvalent metal 0.075 wt. %): 78.4; Incidence of fruit-cracking ([3]; polyvalent metal 0.075 wt. %): 18.5%; Phytotoxicity ([3]; polyvalent metal 0.075 wt. %): 4; Sugar content ([3]; polyvalent metal 0.075 wt. %): 19.2; Incidence of sunburn (apple tree (Tsugaru); polyvalent metal 0.030 wt. %): 10.0%; Phytotoxicity (apple tree (Tsugaru); polyvalent metal 0.030 wt. %): 4; Seriously damaged fruit (apple tree (Tsugaru); polyvalent metal 0.030 wt. %): 8.0%; Incidence of sunburn (apple tree (Tsugaru); polyvalent metal 0.075 wt. %): 12.0%; Phytotoxicity (apple tree (Tsugaru); polyvalent metal 0.075 wt. %): 4; Seriously damaged fruit (apple tree (Tsugaru); polyvalent metal 0.075 wt. %): 8.0%
O=C[O-].O=C[O-].[Ca+2] [calcium formate],10.0,10.4,47.5,42.5,3,3,10.5,11.1,0.93,0.95,30.0,28.0,34.2,60.8,185,35.6,62.8,191,3,3,Acidity ([3]; polyvalent metal 0.030 wt. %): 0.63; Degree of fruit coloring ([3]; polyvalent metal 0.030 wt. %): 80.5; Incidence of fruit-cracking ([3]; polyvalent metal 0.030 wt. %): 16.1%; Phytotoxicity ([3]; polyvalent metal 0.030 wt. %): 3; Sugar content ([3]; polyvalent metal 0.030 wt. %): 19.9; Acidity ([3]; polyvalent metal 0.075 wt. %): 0.62; Degree of fruit coloring ([3]; polyvalent metal 0.075 wt. %): 80.3; Incidence of fruit-cracking ([3]; polyvalent metal 0.075 wt. %): 15.6%; Phytotoxicity ([3]; polyvalent metal 0.075 wt. %): 3; Sugar content ([3]; polyvalent metal 0.075 wt. %): 20.2; Incidence of sunburn (apple tree (Tsugaru); polyvalent metal 0.030 wt. %): 10.0%; Phytotoxicity (apple tree (Tsugaru); polyvalent metal 0.030 wt. %): 3; Seriously damaged fruit (apple tree (Tsugaru); polyvalent metal 0.030 wt. %): 6.0%; Incidence of sunburn (apple tree (Tsugaru); polyvalent metal 0.075 wt. %): 10.0%; Phytotoxicity (apple tree (Tsugaru); polyvalent metal 0.075 wt. %): 3; Seriously damaged fruit (apple tree (Tsugaru); polyvalent metal 0.075 wt. %): 6.0%
